Measured values reported in patent US12459921B2, “Isoindoline compound, preparation method, pharmaceutical composition and use thereof” (SHANGHAI INSTITUTE OF MATERIA MEDICA, CHINESE ACADEMY OF …, priority 2018, dated 2025).

The molecules below were run on MM.1S cells (assay: Inhibitory effect on the proliferation of MM.1S, MTS cell viability test). Details: Homo sapiens, MM1.S, 168 h, multiple myeloma MM.1S cells, 7 days incubation, read-out: Tumor cell inhibitory activity.
Type: cell-based
Description: Method of tumor cell proliferation inhibition test: the inventors tested all the example compounds on hematologic tumor cells, multiple myeloma MMTs cell line and acute leukemia cell MV-4-11 cell line of some examples. The activity test method and results are as follows.
1. The Compound's Inhibitory Effect on the Proliferation of MM.1S, MTS Cell Viability Test:
MM.1S cells were cultured and collected with 1640 plus 10% fetal bovine serum. The cell concentration was diluted according to 7 days, and 180 ul cell suspension was added to each well of the 96-well cell plate to 20,000 cells. 20 ul of DMSO with a final concentration of 0.2% was added to the control wells. The compound was 5-fold diluted—from the 10 mM stock solution, and 20 ul was also added to each compound cell well (the final concentration of DMSO was 0.2%). The cells were placed in a 37° C., 5% CO2 incubator to incubate for 7 days. After the reaction solution was prepared according to the MTS kit (Promega, G5430), 20 μL was added to each well and incubated in a 37° C., 5% CO2 incubator for 3-4 h. Absorbance value at 490 nm was read with a microtiter plate, and 690 nm absorbance value was used as the background value. OD490-OD690 was used as the final initial data. The formula for calculating the inhibition rate of the compound is: inhibition rate=(ODDMSO-ODcompound)/(ODDMSO-Oblank)×100%. The compound's proliferation inhibition IC50 was fitted by Graph Pad Prism 5.0. The experiment was repeated three times, and the average and standard deviation was calculated according to the three parallel experiments.
Cell viability test results: **** represents cell viability IC50>20 μM, […] represents cell viability 1 μM<IC50<20 μM, ** represents cell viability 100 nM<IC50<1 μM, * represents cell viability IC50<100 nM.

Row | SMILES | IC50 [nM]
1 | C[C@]1(N2Cc3c(OCCCN4CCC(C#N)(c5ccccc5OC(F)(F)F)CC4)cccc3C2=O)CCC(=O)NC1=O [Example 56, (S)-1-(3-((2-(3-methyl-2,6-dioxopiperidine-3-)-1-oxoisoindoline-4-)oxy)propyl)-4-(2-(trifluoromethoxy)phenyl)piperidine-4-carbonitrile] | 1000 to 20000
2 | N#CC1(c2cccc(Cl)c2)CCN(CCCOc2cccc3c2CN(C2CCC(=O)NC2=O)C3=O)CC1 (stereo not shown) [Example 57, 4-(3-chlorophenyl)-1-(3-((2-(2,6-dioxopiperidine-3-)-1-oxoisoindoline-4-)oxy)propyl)piperidine-4-carbonitrile] | < 100
3 | C[C@]1(N2C(=O)c3cccc(OCCCN4CCC(C#N)(c5ccccc5OC(F)(F)F)CC4)c3C2=O)CCC(=O)NC1=O [Example 58, (S)-1-(3-((2-(3-methyl-2,6-dioxopiperidine-3-)-1,3-dioxoisoindoline-4-)oxy)propyl)-4-(2-(trifluoromethoxy)phenyl)piperidine-4-carbonitrile] | 1000 to 20000
4 | N#CC1(c2ccc(Cl)cc2)CCN(CCCOc2cccc3c2CN(C2CCC(=O)NC2=O)C3=O)CC1 (stereo not shown) [Example 59, 4-(4-chlorophenyl)-1-(3-((2-(2,6-dioxopiperidine-3-)-1-oxoisoindoline-4-)oxy)propyl)piperidine-4-carbonitrile] | < 100
5 | C[C@]1(N2Cc3c(OCCCN4CCC(C#N)(c5cccc(OC(F)(F)F)c5)CC4)cccc3C2=O)CCC(=O)NC1=O [Example 60, (S)-1-(3-((2-(3-methyl-2,6-dioxopiperidine-3-)-1-oxoisoindoline-4-)oxy)propyl)-4-(3-(trifluoromethoxy)phenyl)piperidine-4-carbonitrile] | 1000 to 20000
6 | N#CC1(c2ccccc2F)CCN(CCCOc2cccc3c2CN(C2CCC(=O)NC2=O)C3=O)CC1 (stereo not shown) [Example 61, 1-(3-((2-(2,6-dioxopiperidine-3-)-1-oxoisoindoline-4-)oxy)propyl)-4-(2-fluorophenyl)piperidine-4-carbonitrile] | 100 to 1000
7 | C[C@]1(N2C(=O)c3cccc(OCCCN4CCC(C#N)(c5cccc(OC(F)(F)F)c5)CC4)c3C2=O)CCC(=O)NC1=O [Example 62, (S)-1-(3-((2-(3-methyl-2,6-dioxopiperidine-3-)-1,3-dioxoisoindoline-4-)oxy)propyl)-4-(3-(trifluoromethoxy)phenyl)piperidine-4-carbonitrile] | 1000 to 20000
8 | N#CC1(c2cccc(F)c2)CCN(CCCOc2cccc3c2CN(C2CCC(=O)NC2=O)C3=O)CC1 (stereo not shown) [Example 63, 1-(3-((2-(2,6-dioxopiperidine-3-)-1-oxoisoindoline-4-)oxy)propyl)-4-(3-fluorophenyl)piperidine-4-carbonitrile] | 100 to 1000
9 | N#CC1(c2ccccc2Cl)CCN(CCOc2cccc3c2CN(C2CCC(=O)NC2=O)C3=O)CC1 (stereo not shown) [Example 64, 4-(2-chlorophenyl)-1-(2-((2-(2,6-dioxopiperidine-3-)-1-oxoisoindoline-4-)oxy)ethyl) piperidine-4-carbonitrile] | 100 to 1000
10 | N#CC1(c2ccc(F)cc2)CCN(CCCOc2cccc3c2CN(C2CCC(=O)NC2=O)C3=O)CC1 (stereo not shown) [Example 65, 1-(3-((2-(2,6-dioxopiperidine-3-)-1-oxoisoindoline-4-)oxy)propyl)-4-(4-fluorophenyl)piperidine-4-carbonitrile] | 100 to 1000
11 | N#CC1(c2cccc(OC(F)(F)F)c2)CCN(CCOc2cccc3c2CN(C2CCC(=O)NC2=O)C3=O)CC1 (stereo not shown) [Example 66, 1-(2-((2-(2,6-dioxopiperidine-3-)-1-oxoisoindoline-4-)oxy)ethyl)-4-(3-(trifluoromethoxy)phenyl)piperidine-4-carbonitrile] | 100 to 1000
12 | N#Cc1cccc(C2(C#N)CCN(CCCOc3cccc4c3CN(C3CCC(=O)NC3=O)C4=O)CC2)c1 (stereo not shown) [Example 67, 4-(3-cyanophenyl)-1-(3-((2-(2,6-dioxopiperidine-3-)-1-oxoisoindoline-4-)oxy)propyl)piperidine-4-carbonitrile] | 100 to 1000
13 | N#CC1(c2c(F)cccc2Cl)CCN(CCCOc2cccc3c2CN(C2CCC(=O)NC2=O)C3=O)CC1 (stereo not shown) [Example 68, 4-(2-chloro-6-fluorophenyl)-1-(3-((2-(2,6-dioxopiperidine-3-)-1-oxoisoindoline-4-)oxy)propyl)piperidine-4-carbonitrile] | < 100
14 | N#Cc1ccc(C2(C#N)CCN(CCCOc3cccc4c3CN(C3CCC(=O)NC3=O)C4=O)CC2)cc1 (stereo not shown) [Example 69, 4-(4-cyanophenyl)-1-(3-((2-(2,6-dioxopiperidine-3-)-1-oxoisoindoline-4-)oxy)propyl)piperidine-4-carbonitrile] | 100 to 1000
15 | N#CC1(c2ccc(Cl)cc2Cl)CCN(CCCOc2cccc3c2CN(C2CCC(=O)NC2=O)C3=O)CC1 (stereo not shown) [Example 70, 4-(2,4-chlorophenyl)-1-(3-((2-(2,6-dioxopiperidine-3-)-1-oxoisoindoline-4-)oxy)propyl)piperidine-4-carbonitrile] | < 100
16 | N#CC1(c2cccc(OC(F)(F)F)c2)CCN(CCCOc2cccc3c2CN(C2CCC(=O)NC2=O)C3=O)CC1 (stereo not shown) [Example 71, 1-(3-((2-(2,6-dioxopiperidine-3-)-1-oxoisoindoline-4-)oxy)propyl)-4-(3-trifluoromethoxyphenyl)piperidine-4-carbonitrile] | < 100
17 | N#CC1(c2ccc(Cl)cc2F)CCN(CCCOc2cccc3c2CN(C2CCC(=O)NC2=O)C3=O)CC1 (stereo not shown) [Example 72, 4-(4-chloro-2-fluorophenyl)-1-(3-((2-(2,6-dioxopiperidine-3-)-1-oxoisoindoline-4-)oxy)propyl)piperidine-4-carbonitrile] | < 100
18 | N#CC1(c2ccc(OC(F)(F)F)cc2)CCN(CCCOc2cccc3c2CN(C2CCC(=O)NC2=O)C3=O)CC1 (stereo not shown) [Example 73, 1-(3-((2-(2,6-dioxopiperidine-3-)-1-oxoisoindoline-4-)oxy)propyl)-4-(4-trifluoromethoxyphenyl)piperidine-4-carbonitrile] | < 100
19 | N#CC1(c2ccc(F)cc2Cl)CCN(CCCOc2cccc3c2CN(C2CCC(=O)NC2=O)C3=O)CC1 (stereo not shown) [Example 74, 4-(2-chloro-4-fluorophenyl)-1-(3-((2-(2,6-dioxopiperidine-3-)-1-oxoisoindoline-4-)oxy)propyl)piperidine-4-carbonitrile] | < 100
20 | N#CC1(c2cccc(Cl)c2)CCN(CCCCOc2cccc3c2CN(C2CCC(=O)NC2=O)C3=O)CC1 (stereo not shown) [Example 75, 4-(3-chlorophenyl)-1-(4-((2-(2,6-dioxopiperidine-3-)-1-oxoisoindoline-4-)oxy)butyl)piperidine-4-carbonitrile] | 100 to 1000
21 | N#CC1(c2c(Cl)cccc2Cl)CCN(CCCOc2cccc3c2CN(C2CCC(=O)NC2=O)C3=O)CC1 (stereo not shown) [Example 76, 4-(2,6-chlorophenyl)-1-(3-((2-(2,6-dioxopiperidine-3-)-1-oxoisoindoline-4-)oxy)propyl)piperidine-4-carbonitrile] | < 100
22 | N#CC1(c2ccc(Cl)cc2)CCN(CCCCOc2cccc3c2CN(C2CCC(=O)NC2=O)C3=O)CC1 (stereo not shown) [Example 77, 4-(4-chlorophenyl)-1-(4-((2-(2,6-dioxopiperidine-3-)-1-oxoisoindoline-4-)oxy)butyl)piperidine-4-carbonitrile] | 100 to 1000
23 | N#CC1(c2ccccc2OC(F)(F)F)CCN(CCCOc2cccc3c2CN(C2CCC(=O)NC2=O)C3=O)CC1 (stereo not shown) [Example 78, 1-(3-((2-(2,6-dioxopiperidine-3-)-1-oxoisoindoline-4-)-oxy-)propyl)-4-(2-trifluoromethoxyphenyl)piperidine-4-carbonitrile] | < 100
24 | N#CC1(c2cccc(Cl)c2)CCN(CCCCCOc2cccc3c2CN(C2CCC(=O)NC2=O)C3=O)CC1 (stereo not shown) [Example 79, 4-(3-chlorophenyl)-1-(5-((2-(2,6-dioxopiperidine-3-)-1-oxoisoindoline-4-)oxy)pentyl)piperidine-4-carbonitrile] | < 100
25 | C[C@]1(N2Cc3c(OCCCN4CCC(C#N)(c5ccccc5Cl)CC4)cccc3C2=O)CCC(=O)NC1=O [Example 80, (S)-4-(2-chlorophenyl)-1-(3-((2-(3-methyl-2,6-dioxopiperidine-3-)-1-oxoisoindoline-4-)oxy)propyl)piperidine-4-carbonitrile] | 1000 to 20000
26 | N#CC1(c2ccc(Cl)cc2)CCN(CCCCCOc2cccc3c2CN(C2CCC(=O)NC2=O)C3=O)CC1 (stereo not shown) [Example 81, 4-(4-chlorophenyl)-1-(5-((2-(2,6-dioxopiperidine-3-)-1-oxoisoindoline-4-)oxy)pentyl) piperidine-4-carbonitrile] | < 100
27 | N#CC1(c2ccccc2Cl)CCN(C(=O)CCCOc2cccc3c2CN(C2CCC(=O)NC2=O)C3=O)CC1 (stereo not shown) [Example 82, 4-(2-chlorophenyl)-1-(4-((2-(2,6-dioxopiperidine-3-)-1-oxoisoindoline-4-)oxy)butyryl)piperidine-4-carbonitrile] | 100 to 1000
28 | N#CC1(c2cccc(Cl)c2)CCN(C(=O)CCCOc2cccc3c2CN(C2CCC(=O)NC2=O)C3=O)CC1 (stereo not shown) [Example 83, 4-(3-chlorophenyl)-1-(4-((2-(2,6-dioxopiperidine-3-)-1-oxoisoindoline-4-)oxy)butyryl) piperidine-4-carbonitrile] | < 100
